According to ChEMBL document CHEMBL4033638, “Effect of natural and semi-synthetic cadinanes from Heterotheca inuloides on NF-κB, Nrf2 and STAT3 signaling pathways and evaluation of their in vitro cytotoxicity in human cancer cell lines” (Bioorg Med Chem, 2017):
Active and inactive are the calls of the source. The rule behind the calls is not given here.

Columns and labels:
[1] = Inhibition of TNFalpha-stimulated NFkappaB (unknown origin) expressed in mouse NIH-3T3-KBFLuc cells at 50 uM after 6 hrs by luciferase reporter gene assay relative to control; assay type: cell-based; details: Homo sapiens
[2] = molecular target: T1, Nuclear factor erythroid 2-related factor 2 (Homo sapiens) (UniProt Q16236); test: Activation of Nrf2 in human HaCaT-ARE-Luc cells at 50 uM after 6 hrs by luciferase reporter gene assay relative to control; assay type: cell-based
T1 sequence (whole entry): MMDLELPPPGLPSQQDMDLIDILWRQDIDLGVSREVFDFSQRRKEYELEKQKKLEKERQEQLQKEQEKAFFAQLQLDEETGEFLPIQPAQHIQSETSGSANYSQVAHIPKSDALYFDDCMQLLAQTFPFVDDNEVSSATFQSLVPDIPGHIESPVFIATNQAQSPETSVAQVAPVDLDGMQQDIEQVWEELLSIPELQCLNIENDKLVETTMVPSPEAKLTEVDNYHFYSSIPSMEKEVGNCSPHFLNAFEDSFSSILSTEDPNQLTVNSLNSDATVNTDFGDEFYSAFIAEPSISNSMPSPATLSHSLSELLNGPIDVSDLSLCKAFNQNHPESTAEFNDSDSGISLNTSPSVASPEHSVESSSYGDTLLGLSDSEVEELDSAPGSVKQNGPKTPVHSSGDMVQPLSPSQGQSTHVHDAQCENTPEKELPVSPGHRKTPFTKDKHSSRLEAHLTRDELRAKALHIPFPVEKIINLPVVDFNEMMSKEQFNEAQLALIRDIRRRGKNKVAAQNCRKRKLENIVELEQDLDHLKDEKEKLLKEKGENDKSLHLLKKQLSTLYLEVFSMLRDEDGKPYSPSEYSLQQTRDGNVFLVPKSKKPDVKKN

[3] = molecular target: Signal transducer and activator of transcription 3 (Homo sapiens) (UniProt P40763); test: Inhibition of IFNgamma-stimulated STAT3 (unknown origin) activation expressed in human HeLa cells at 50 uM after 6 hrs by luciferase reporter gene assay relative to control; assay type: cell-based
U-251 [4] = test: Antiproliferative activity against human U251 cells at 50 uM after 48 hrs by sulforhodamine B assay relative to control; assay type: functional; details: for inhibition at 50 µM: U-251, 48 h
PC-3 [5] = test: Antiproliferative activity against human PC3 cells at 50 uM after 48 hrs by sulforhodamine B assay relative to control; assay type: functional; details: PC-3, 48 h
PC-3 [6] = test: Antiproliferative activity against human PC3 cells after 48 hrs by sulforhodamine B assay; assay type: functional, cell-based; details: PC-3, 48 h
K562 [7] = test: Antiproliferative activity against human K562 cells at 50 uM after 48 hrs by sulforhodamine B assay relative to control; assay type: functional; details: for inhibition at 50 µM: K562, 48 h
HCT-15 [8] = test: Antiproliferative activity against human HCT15 cells at 50 uM after 48 hrs by sulforhodamine B assay relative to control; assay type: functional; details: for inhibition at 50 µM: HCT-15, 48 h
MCF7 [9] = test: Antiproliferative activity against human MCF7 cells at 50 uM after 48 hrs by sulforhodamine B assay relative to control; assay type: functional; details: MCF7, 48 h
SK-LU-1 [10] = test: Antiproliferative activity against human SK-LU-1 cells at 50 uM after 48 hrs by sulforhodamine B assay relative to control; assay type: functional; details: for inhibition at 50 µM: SK-LU-1, 48 h
U-251 [11] = test: Antiproliferative activity against human U251 cells after 48 hrs by sulforhodamine B assay; assay type: functional, cell-based; details: U-251, 48 h
K562 [12] = test: Antiproliferative activity against human K562 cells after 48 hrs by sulforhodamine B assay; assay type: functional, cell-based; details: K562, 48 h
HCT-15 [13] = test: Antiproliferative activity against human HCT15 cells after 48 hrs by sulforhodamine B assay; assay type: functional, cell-based; details: HCT-15, 48 h
MCF7 [14] = test: Antiproliferative activity against human MCF7 cells after 48 hrs by sulforhodamine B assay; assay type: functional, cell-based; details: MCF7, 48 h
SK-LU-1 [15] = test: Antiproliferative activity against human SK-LU-1 cells after 48 hrs by sulforhodamine B assay; assay type: functional, cell-based; details: SK-LU-1, 48 h

Chain of Signal transducer and activator of transcription 3 (Homo sapiens) (P40763 whole entry): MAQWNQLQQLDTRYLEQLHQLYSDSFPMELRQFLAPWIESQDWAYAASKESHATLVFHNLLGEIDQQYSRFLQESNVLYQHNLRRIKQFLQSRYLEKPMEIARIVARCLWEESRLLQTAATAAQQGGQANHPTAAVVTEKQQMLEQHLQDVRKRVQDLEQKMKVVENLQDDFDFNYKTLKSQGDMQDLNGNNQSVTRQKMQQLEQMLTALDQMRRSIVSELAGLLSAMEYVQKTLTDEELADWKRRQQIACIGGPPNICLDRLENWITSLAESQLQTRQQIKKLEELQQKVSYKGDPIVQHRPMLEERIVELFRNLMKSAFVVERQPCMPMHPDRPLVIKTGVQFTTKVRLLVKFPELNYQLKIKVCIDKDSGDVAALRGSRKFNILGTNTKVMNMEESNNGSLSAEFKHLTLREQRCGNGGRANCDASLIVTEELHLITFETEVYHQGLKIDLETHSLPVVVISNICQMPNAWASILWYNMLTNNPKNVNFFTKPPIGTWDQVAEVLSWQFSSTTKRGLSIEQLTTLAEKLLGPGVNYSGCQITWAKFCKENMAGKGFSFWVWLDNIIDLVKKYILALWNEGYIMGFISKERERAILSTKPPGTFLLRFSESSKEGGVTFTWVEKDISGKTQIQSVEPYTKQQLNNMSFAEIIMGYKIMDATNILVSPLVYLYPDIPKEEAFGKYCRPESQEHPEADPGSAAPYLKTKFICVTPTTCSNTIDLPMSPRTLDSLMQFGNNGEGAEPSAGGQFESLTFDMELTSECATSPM

Structure (SMILES) | inhibition [1] [%] | fold change (FC) [2] | inhibition [3] [%] | inhibition at 50 µM (U-251 [4]) [%] | inhibition at 50 µM (PC-3 [5]) [%] | IC50 (PC-3 [6]) [µM] | inhibition at 50 µM (K562 [7]) [%] | inhibition at 50 µM (HCT-15 [8]) [%] | inhibition at 50 µM (MCF7 [9]) [%] | inhibition at 50 µM (SK-LU-1 [10]) [%] | inhibition (K562 [7]) | inhibition (HCT-15 [8]) | inhibition (U-251 [4]) | inhibition (SK-LU-1 [10]) | IC50 (U-251 [11]) [µM] | IC50 (K562 [12]) [µM] | IC50 (HCT-15 [13]) [µM] | IC50 (MCF7 [14]) [µM] | IC50 (SK-LU-1 [15]) [µM]
Cc1ccc2c(c1)C(=O)C(C(C)C)=C[C@@]2(C)O | 11.1 | 1.7 | 2.4 | – | – | – | – | – | – | – | – | – | – | – | – | – | – | – | –
COc1ccc(C(=O)Oc2cc3c(cc2C)[C@@H](C(C)C)CC=C3C)cc1 | 49.2 | 1.9 | 1.8 | 37 | 60.6 | 32.2 | 46.5 | 30.8 | 80.1 | 18.6 | – | – | – | – | – | – | – | – | –
COc1ccc(C(=O)Oc2cc3c(C)ccc(C(C)C)c3cc2C)cc1 | 26.9 | 1.3 | 2.5 | 42.6 | 10.4 | – | 88.6 | 84 | 93.4 | 32.8 | – | – | – | – | – | – | – | – | –
Cc1cc2c(C(C)C)ccc(C)c2cc1OC(=O)c1cccc(Cl)c1 | 25.6 | 1.7 | 1.8 | 0.8 | 4.2 | – | – | – | 11.4 | 11.6 | inactive | inactive | – | – | – | – | – | – | –
CC1=CC[C@H](C(C)C)c2cc(C(=O)O)ccc21 | 7.3 | 1.8 | 2.9 | – | – | – | – | – | – | – | – | – | – | – | – | – | – | – | –
Cc1cc2c(C(C)C)ccc(C)c2cc1OC(=O)c1ccccc1 | 34.5 | 1.9 | 0.5 | 41.5 | 21.2 | – | 44.3 | 72 | 51 | 63 | – | – | – | – | – | – | – | – | –
COc1cccc(C(=O)Oc2cc3c(C)ccc(C(C)C)c3cc2C)c1 | 2.8 | 1.5 | 0.8 | – | 12.5 | – | 14.2 | 35.2 | 31.8 | 30.6 | – | – | inactive | – | – | – | – | – | –
CC1=C[C@](O)(C(C)C)C(=O)c2cc(C)c(O)cc21 | 28.8 | 1.3 | 2.2 | – | – | – | – | – | – | – | – | – | – | – | – | – | – | – | –
CC1=CC[C@H](C(C)C)c2cc(C)c(OC(=O)c3cccc(C(F)(F)F)c3)cc21 | 4.4 | 1.9 | 1.7 | 29.3 | 25.4 | – | 45.5 | 15 | 86 | 18.3 | – | – | – | – | – | – | – | – | –
CC1=CC[C@H](C(C)C)c2cc(C)c(OC(=O)c3ccc(Cl)cc3)cc21 | 36.1 | 1.3 | 2.7 | 25.6 | 34.1 | – | 58.9 | 47.4 | 79.7 | 17.4 | – | – | – | – | – | – | – | – | –
Cc1cc2c(C(C)C)ccc(C)c2cc1OC(=O)c1ccc(C(F)(F)F)cc1 | 5.2 | 1.7 | 0.9 | 16.5 | 100 | 34 | 45.1 | 55.6 | 16.8 | 28.7 | – | – | – | – | – | – | – | – | –
CC1=CC[C@H](C(C)C)c2cc(C)c(OC(=O)c3ccc(C(F)(F)F)cc3)cc21 | 25.4 | 1.6 | 2.5 | 14.7 | 12.3 | – | 9 | 6.4 | 40.4 | – | – | – | – | inactive | – | – | – | – | –
CC(C)[C@H]1CC[C@@](C)(O)c2ccc(C(=O)O)cc21 | 6.7 | 1.7 | 3.8 | – | – | – | – | – | – | – | – | – | – | – | – | – | – | – | –
COc1c(C(C)C)cc(C)c2ccc(C)cc12 | 26.5 | 1.9 | 0.9 | – | – | – | – | – | – | – | – | – | – | – | – | – | – | – | –
COc1cccc(C(=O)Oc2cc3c(cc2C)[C@@H](C(C)C)CC=C3C)c1 | 41.2 | 1.6 | 3.3 | – | 16.3 | – | – | – | 11.9 | 24.2 | inactive | inactive | inactive | – | – | – | – | – | –
CC1=CC[C@H](C(C)C)c2cc(C)c(OC(=O)c3ccccc3)cc21 | 47.2 | 6.6 | 2.4 | 25.8 | 22.5 | – | – | 49.5 | 60.7 | 37 | inactive | – | – | – | – | – | – | – | –
CC1=C2CCC(C(=O)O)=C[C@@H]2[C@@H](C(C)C)CC1 | 5.9 | 1.4 | 3.8 | – | – | – | – | – | – | – | – | – | – | – | – | – | – | – | –
CC1=CC[C@H](C(C)C)c2cc(C)c(OC(=O)c3cccc([N+](=O)[O-])c3)cc21 | 3.5 | 1.5 | 3.2 | 44 | 36.9 | – | 15.9 | 45.9 | 29.3 | 60.4 | – | – | – | – | – | – | – | – | –
Cc1cccc(C(=O)Oc2cc3c(C)ccc(C(C)C)c3cc2C)c1 | 4.8 | 1.8 | 2 | 5.2 | 52.4 | 47.1 | 17.1 | 27.6 | 50.4 | – | – | – | – | inactive | – | – | – | – | –
Cc1cc2c(C(C)C)ccc(C)c2cc1OC(=O)c1ccc(Cl)cc1 | 15.5 | 1.7 | 1.3 | 92.8 | 81.1 | 44 | 95.4 | 82.2 | 76 | 100 | – | – | – | – | 35.5 | 19.1 | 34 | 32.1 | 23.9
Cc1cc2c(C(C)C)ccc(C=O)c2cc1O | 40.1 | 1.6 | 3.5 | – | – | – | – | – | – | – | – | – | – | – | – | – | – | – | –
Cc1cc2c(C(C)C)ccc(C)c2cc1OC(=O)c1cccc(C(F)(F)F)c1 | 4.8 | 1.9 | 2.7 | – | 26.7 | – | – | – | 41.5 | 17.3 | inactive | inactive | inactive | – | – | – | – | – | –
CC1=CC[C@H](C(C)C)[C@H]2C=C(C(=O)O)CC=C12 | 12.3 | 1.9 | 3.6 | – | – | – | – | – | – | – | – | – | – | – | – | – | – | – | –
CC1=CC[C@H](C(C)C)c2cc(C)c(OC(=O)c3cccc(C)c3)cc21 | 44.2 | 1.7 | 2.3 | 16.8 | 38.6 | – | – | 5.3 | 54.9 | – | inactive | – | – | inactive | – | – | – | – | –
CC1=CC[C@H](C(C)C)c2cc(C)c(OC(=O)c3ccc([N+](=O)[O-])cc3)cc21 | 7.2 | 8.5 | 1.6 | 16.8 | 36.7 | 42.5 | 89 | 67.8 | 72.9 | 47.5 | – | – | – | – | – | – | 56.3 | – | 42.9
CC1=CC[C@H](C(C)C)c2cc(C)c(OC(=O)c3cccc(Cl)c3)cc21 | 22.5 | 1.4 | 1.5 | 0.9 | 23.4 | – | – | 5.3 | 40.4 | 30.6 | inactive | – | – | – | – | – | – | – | –
